Test results as given in publication PMC7084598, “Design, Synthesis, and Biological Evaluation of Two Series of Novel A-Ring Fused Steroidal Pyrazines as Potential Anticancer Agents” (International Journal of Molecular Sciences, 2020).

Assays:
[1] = system: PC-3 (prostate carcinoma); assay: CCK-8 antiproliferative assay, PC-3; type: cell-based, human; conditions: for inhibition at 20 µM / IC50: Homo sapiens; for inhibition at 20 µM: 48 h, CCK8, mean of three independent experiments, NA = no activity, read-out: Inhibitory Ratio (Mean% ± SD%) PC-3; for IC50: CCK-8, 48 h, triplicate; for SI: Selectivity index = (IC50 of THLE-2)/(IC50 of PC-3): THLE-2 vs PC-3
Experimental: (§1) All the thirty-six target derivatives (5a–5f, 10a–10o, and 12a–12o) were screened for antiproliferative activities against three human cancer cell lines (MCF-7, PC-3, and HepG2) and cytotoxicity on a normal human cell (THLE-2) at the concentration of 20 μM by using the CCK8 assay.
(§2) Thirty-six novel steroidal A-ring fused pyrazine hybrids were evaluated by Cell Counting Kit-8 (CCK-8) assays, to evaluate their in vitro antiproliferative activities on three human cancer cell lines and one normal cell line: MCF-7 (breast carcinoma), PC-3 (prostate carcinoma), HepG2 (liver hepatocellular carcinoma), and THLE-2 ([…]), with 5-fluorouracil as the positive control.
(§3) Cells (3 × 10^3 cells per well) seeded into 96-well plates (Costar, Shanghai, China) were incubated with Ham’s F-12K containing various concentrations of steroidal pyrazines (5a–5f, 10a–10o, and 12a–12o) for 48 h at 37 °C and 5% COThen, 10 μL of CCK-8 reagent (Beyotime, Shanghai, China) dissolved in PBS (Phosphate buffered saline) was added per well, and continuously incubated at 37 °C for 1 h. Finally, the absorbance of samples taken from each well was measured on a microplate reader at 450 nm. The antiproliferative activities were expressed as inhibitory activity and IC50 values calculated using GraphPad Software 5.0 (GraphPad Software, San Diego, CA, USA), which were the mean values of three independent tests and are shown in Table 1 and Table 2, respectively. The formula used for cell inhibitory rates was (1 - sample absorption/vehicle absorption) × 100%.

[2] = system: HepG2 (liver hepatocellular carcinoma); assay: CCK-8 antiproliferative assay, HepG2; type: cell-based; conditions: Homo sapiens, 48 h, CCK8, mean of three independent experiments, NA = no activity, read-out: Inhibitory Ratio (Mean% ± SD%) HepG2
Experimental: as §1, §2, §3

MCF-7 (breast carcinoma) = assay: CCK-8 antiproliferative assay, MCF-7; type: cell-based; conditions: Homo sapiens, MCF7, 48 h, CCK8, mean of three independent experiments, NA = no activity, read-out: Inhibitory Ratio (Mean% ± SD%) MCF-7
Experimental: as §1, §2, §3

[3] = system: THLE-2 (normal human cells); assay: CCK-8 cytotoxicity on normal cells, THLE-2; type: cell-based; conditions: for inhibition at 20 µM: 48 h, CCK8, NA = no activity, read-out: Inhibitory Ratio (Mean% ± SD%) THLE-2; for IC50: CCK-8, 48 h
Experimental: as §1, §2, §3

Row | Compound | inhibition at 20 µM [1] [%] | IC50 [1] [µM] | SI: Selectivity index = (IC50 of THLE-2)/(IC50 of PC-3) [1] | inhibition at 20 µM [2] [%] | inhibition at 20 µM (MCF-7 (breast carcinoma)) [%] | inhibition at 20 µM [3] [%] | IC50 [3] [µM] | melting point [°C]
1 | O=c1[nH]cc(F)c(=O)[nH]1 [Compound 5-FU, 5-fluorouracil, reference compound] | 35 ± 1.46 | 22.4 ± 0.41 | 0.58 | 47.7 ± 1.3 | 47.9 ± 1.67 | 51.8 ± 0.69 | 12.9 | 
2 | CC1(C)C2=CCC3C(CC[C@@]4(C)C3CC[C@@H]4C(=O)O)[C@@]2(C)Cc2nccnc21 (stereo partly shown) [Compound 5a] | 25.1 ± 2.64 |  |  | 17.9 ± 1.16 | 3.09 ± 1.05 |  |  | 270 to 292
3 | CC1(C)C2=CCC3C(CC[C@@]4(C)C3CC[C@@H]4C(=O)O)[C@@]2(C)Cc2nc3ccccc3nc21 (stereo partly shown) [Compound 5b] | 12.5 ± 12.9 |  |  | 7.24 ± 5.83 |  | 12.6 ± 1.22 |  | 
4 | CC1(C)C2=CCC3C(CC[C@@]4(C)C3CC[C@@H]4C(=O)O)[C@@]2(C)Cc2nc3cc(Br)ccc3nc21 (stereo partly shown) [Compound 5c] | 20.7 ± 12.5 |  |  |  | 6.86 ± 7.46 | 12.5 ± 0.9 |  | 
5 | CC1(C)C2=CCC3C(CC[C@@]4(C)C3CC[C@@H]4C(=O)O)[C@@]2(C)Cc2nc3ccc(Br)cc3nc21 (stereo partly shown) [Compound 5d] | 30 to 60 |  |  |  | 12.4 ± 0.3 | 2.39 ± 0.65 |  | 
6 | CC1(C)C2=CCC3C(CC[C@@]4(C)C3CC[C@@H]4C(=O)O)[C@@]2(C)Cc2nc3cc(O)ccc3nc21 (stereo partly shown) [Compound 5e] |  |  |  |  | 6.57 ± 0.09 |  |  | 
7 | CC1(C)C2=CCC3C(CC[C@@]4(C)C3CC[C@@H]4C(=O)O)[C@@]2(C)Cc2nc3ccc(O)cc3nc21 (stereo partly shown) [Compound 5f] |  |  |  | 24.9 ± 2.3 | 18.4 ± 13.1 |  |  | 
8 | CC(O)C1CCC2C3CC=C4C(C)(C)c5nccnc5CC4(C)C3CCC12C (stereo not shown) [Compound 10a] |  |  |  | 6.2 ± 5.25 | 4.99 ± 3.09 |  |  | 150 to 152
9 | CC(O)C1CCC2C3CC=C4C(C)(C)c5nc6ccccc6nc5CC4(C)C3CCC12C (stereo not shown) [Compound 10b] | 12.5 ± 12.9 |  |  | 7.24 ± 5.83 | 9.95 ± 0.55 | 4.35 ± 2.27 |  | 
10 | CC(O)C1CCC2C3CC=C4C(C)(C)c5nc6ccc(F)cc6nc5CC4(C)C3CCC12C (stereo not shown) [Compound 10c] | 24.9 ± 2.12 |  |  |  | 3.85 ± 1.97 |  |  | 
11 | CC(O)C1CCC2C3CC=C4C(C)(C)c5nc6cc(F)ccc6nc5CC4(C)C3CCC12C (stereo not shown) [Compound 10d] | 52.8 ± 0.86 |  |  | 22.4 ± 4.89 | 21.2 ± 9.12 |  |  | 
12 | CC(O)C1CCC2C3CC=C4C(C)(C)c5nc6ccc(Cl)cc6nc5CC4(C)C3CCC12C (stereo not shown) [Compound 10e] | 44.8 ± 3.26 |  |  | 25.6 ± 2.51 |  |  |  | 
13 | CC(O)C1CCC2C3CC=C4C(C)(C)c5nc6cc(Cl)ccc6nc5CC4(C)C3CCC12C (stereo not shown) [Compound 10f] | 59.6 ± 1.29 |  |  | 32.6 ± 0.41 | 23.9 ± 1.87 |  |  | 
14 | CC(O)C1CCC2C3CC=C4C(C)(C)c5nc6ccc(Br)cc6nc5CC4(C)C3CCC12C (stereo not shown) [Compound 10g] |  |  |  | 11.7 ± 2.56 |  |  |  | 
15 | CC(O)C1CCC2C3CC=C4C(C)(C)c5nc6cc(Br)ccc6nc5CC4(C)C3CCC12C (stereo not shown) [Compound 10h] | 21.7 ± 1.27 |  |  | 13.1 ± 0.68 | 21.2 ± 3.73 | 2.39 ± 0.07 |  | 
16 | CC(O)C1CCC2C3CC=C4C(C)(C)c5nc6ccc(O)cc6nc5CC4(C)C3CCC12C (stereo not shown) [Compound 10i] | 14.2 ± 0.87 |  |  |  | 17.9 ± 6.61 |  |  | 
17 | CC(O)C1CCC2C3CC=C4C(C)(C)c5nc6cc(O)ccc6nc5CC4(C)C3CCC12C (stereo not shown) [Compound 10j] | 30 to 60 |  |  |  | 18.6 ± 0.92 |  |  | 
18 | COc1ccc2nc3c(nc2c1)CC1(C)C(=CCC2C1CCC1(C)C(C(C)O)CCC21)C3(C)C (stereo not shown) [Compound 10k] |  |  |  | 29.3 ± 5.38 | 11.2 ± 0.49 | 3.54 ± 2.16 |  | 

Row | Compound | inhibition at 20 µM [1] [%] | IC50 [1] [µM] | SI: Selectivity index = (IC50 of THLE-2)/(IC50 of PC-3) [1] | inhibition at 20 µM [2] [%] | inhibition at 20 µM (MCF-7 (breast carcinoma)) [%] | inhibition at 20 µM [3] [%] | IC50 [3] [µM] | melting point [°C]
19 | COc1ccc2nc3c(nc2c1)C(C)(C)C1=CCC2C(CCC4(C)C(C(C)O)CCC24)C1(C)C3 (stereo not shown) [Compound 10l] | 30 to 60 |  |  | 33.3 ± 1.13 | 41.6 ± 1.28 | 22.2 ± 2.72 |  | 
20 | CC(O)C1CCC2C3CC=C4C(C)(C)c5nc6ccc([N+](=O)[O-])cc6nc5CC4(C)C3CCC12C (stereo not shown) [Compound 10m] | 16 ± 0.57 |  |  | 18.2 ± 7.46 | 14.7 ± 0.25 |  |  | 
21 | CC(O)C1CCC2C3CC=C4C(C)(C)c5nc6cc([N+](=O)[O-])ccc6nc5CC4(C)C3CCC12C (stereo not shown) [Compound 10n] | 16.6 ± 3.72 |  |  | 18.7 ± 2.69 | 20 ± 2.56 |  |  | 
22 | CC(O)C1CCC2C3CC=C4C(C)(C)c5nc(C(=O)Nc6ccccc6)cnc5CC4(C)C3CCC12C (stereo not shown) [Compound 12a] | 24.2 ± 0.94 |  |  | 12.5 ± 12.9 |  |  |  | 
23 | Cc1ccccc1NC(=O)c1cnc2c(n1)C(C)(C)C1=CCC3C(CCC4(C)C(C(C)O)CCC34)C1(C)C2 (stereo not shown) [Compound 12b] | 20.8 ± 7.04 |  |  | 15.2 ± 5.61 | 8.12 ± 3.17 | 5.15 ± 1.79 |  | 
24 | Cc1cccc(NC(=O)c2cnc3c(n2)C(C)(C)C2=CCC4C(CCC5(C)C(C(C)O)CCC45)C2(C)C3)c1 (stereo not shown) [Compound 12c] | 19.9 ± 0.43 |  |  | 7.02 ± 3.1 | 3.57 ± 1.69 |  |  | 
25 | Cc1ccc(NC(=O)c2cnc3c(n2)C(C)(C)C2=CCC4C(CCC5(C)C(C(C)O)CCC45)C2(C)C3)cc1 (stereo not shown) [Compound 12d] | 22.6 ± 2.25 |  |  | 16.3 ± 3.72 | 25 ± 3.43 | 18.2 ± 6.76 |  | 
26 | CC(O)C1CCC2C3CC=C4C(C)(C)c5nc(C(=O)Nc6ccccc6F)cnc5CC4(C)C3CCC12C (stereo not shown) [Compound 12e] | 47 ± 3.47 |  |  | 17.6 ± 3.19 | 3.28 ± 1.9 | 14 ± 1.47 |  | 
27 | CC(O)C1CCC2C3CC=C4C(C)(C)c5nc(C(=O)Nc6cccc(F)c6)cnc5CC4(C)C3CCC12C (stereo not shown) [Compound 12f] | 33.2 ± 4.68 |  |  | 12.8 ± 4.26 | 0.8 ± 3.31 |  |  | 
28 | CC(O)C1CCC2C3CC=C4C(C)(C)c5nc(C(=O)Nc6ccc(F)cc6)cnc5CC4(C)C3CCC12C (stereo not shown) [Compound 12g] | > 60 | 6.88 ± 0.04 | 2.14 |  | 33.4 ± 5.35 | 17.6 ± 1.39 | 14.7 | 
29 | CC(O)C1CCC2C3CC=C4C(C)(C)c5nc(C(=O)Nc6ccccc6Cl)cnc5CC4(C)C3CCC12C (stereo not shown) [Compound 12h] | 41.7 ± 4.79 |  |  | 21.9 ± 2.05 |  |  |  | 
30 | CC(O)C1CCC2C3CC=C4C(C)(C)c5nc(C(=O)Nc6cccc(Cl)c6)cnc5CC4(C)C3CCC12C (stereo not shown) [Compound 12i] | 35.9 ± 2.97 |  |  | 15.9 ± 2.93 | 20.2 ± 0.52 |  |  | 
31 | CC(O)C1CCC2C3CC=C4C(C)(C)c5nc(C(=O)Nc6ccc(Cl)cc6)cnc5CC4(C)C3CCC12C (stereo not shown) [Compound 12j] | 51.1 ± 1.02 |  |  | 23.1 ± 1.27 | 24.9 ± 4.84 |  |  | 
32 | COc1ccccc1NC(=O)c1cnc2c(n1)C(C)(C)C1=CCC3C(CCC4(C)C(C(C)O)CCC34)C1(C)C2 (stereo not shown) [Compound 12k] | 32.9 ± 1.19 |  |  | 12.9 ± 0.43 | 17.7 ± 1.01 | 4.71 ± 1.25 |  | 
33 | COc1cccc(NC(=O)c2cnc3c(n2)C(C)(C)C2=CCC4C(CCC5(C)C(C(C)O)CCC45)C2(C)C3)c1 (stereo not shown) [Compound 12l] | 26.9 ± 1.71 |  |  | 12 ± 1.67 | 13.8 ± 2.32 |  |  | 
34 | COc1ccc(NC(=O)c2cnc3c(n2)C(C)(C)C2=CCC4C(CCC5(C)C(C(C)O)CCC45)C2(C)C3)cc1 (stereo not shown) [Compound 12m] | 30 to 60 |  |  | 20.3 ± 3.6 | 20 ± 2.33 | 5.68 ± 1.9 |  | 
35 | CC(O)C1CCC2C3CC=C4C(C)(C)c5nc(C(=O)NC6CCCCC6)cnc5CC4(C)C3CCC12C (stereo not shown) [Compound 12o] |  |  |  | 24.1 ± 2.34 | 15.1 ± 1.25 |  |  | 
